Experiments:
LKLF/KLF2 gene [1] = assay: LKLF/KLF2 gene expression in HUVEC by reverse transcription and TaqMan analysis (ABI PRISM 7000); type: cell-based, human; conditions: for activities to promote the expression of LKLF/KLF2 gene (summary statement): cultured human cell system; for effect of added metabolite on the increase of LKLF/KLF2 gene expression by pitavastatin calcium: pitavastatin calcium 1 μmol/L in combination with MVA 100 μmol/L, FPP, GGPP or Cho 10 μmol/L, 8 hours
LKLF/KLF2 gene [2] = assay: LKLF/KLF2 gene expression analysis in HUVEC by Human Genome Focus Array (GeneChip); type: cell-based; conditions: control 271
Method: Two days after inoculation of normal human umbilical vein endothelial cells (HUVEC) at 3×10^5 cells/10 cm dish, pitavastatin calcium (indicated as “Pit” in FIG. 1) was added to 1.1 μmol/L. Dimethyl sulfoxide, a solvent for pitavastatin calcium, was added to a control (final concentration: 0.0066 v/v %). Eight hours after the addition, total RNAs were extracted with “ISOGEN” (trade mark, product of NIPPON GENE CO., LTD.). The following procedures were conducted in accordance with the procedures manual of Affymetrix. Inc. Described specifically, following the methods known per se in the art, mRNA was isolated from each total RNA obtained above, and based on the mRNA, cDNA was synthesized. Further, biotin-labeled cRNA was synthesized by in vitro transcription. Subsequent to purification, the biotin-labeled cRNA was subjected to fragmentation by heat treatment to prepare fragmented cRNA for use in a gene expression analysis.
Gene expression analysis method: The fragmented cRNA was poured into “Human Genome Focus Array” (trade name, product of Affymetrix, Inc.), and hybridization was conducted at 45° C. for 16 hours. […] The information was analyzed by “GENECHIP SOFTWARE” (trade name, product of Affymetrix, Inc.) to effect a comparison in expression level.

| Compound | activities to promote the expression of LKLF/KLF2 gene (summary statement) (LKLF/KLF2 gene [1]) | effect of added metabolite on the increase of LKLF/KLF2 gene expression by pitavastatin calcium (LKLF/KLF2 gene [1]; HUVEC) | other results |
| --- | --- | --- | --- |
| CSCC[C@H](NC(=O)c1ccc(NC[C@@H](N)CS)cc1-c1ccccc1)C(=O)O [FTI-276] | in possession of activities to promote the expression of LKLF/KLF2 gene | – | – |
| COC(=O)[C@H](CC(C)C)NC(=O)c1ccc(NC[C@@H](N)CS)cc1-c1ccccc1 [GGTI-286] | in possession of activities to promote the expression of LKLF/KLF2 gene | – | – |
| CC(C)CCC[C@@H](C)[C@H]1CC[C@H]2[C@@H]3CC=C4C[C@@H](O)CC[C@]4(C)[C@H]3CC[C@]12C [cholesterol] | – | not affected | – |
| CC(C)=CCC/C(C)=C/CC/C(C)=C/COP(=O)(O)OP(=O)(O)O [farnesyl pyrophosphate] | – | reduced | – |
| CC(C)=CCC/C(C)=C/CC/C(C)=C/CC/C(C)=C/COP(=O)(O)OP(=O)(O)O [geranylgeranyl pyrophosphate] | – | reduced | – |
| C[C@@](O)(CCO)CC(=O)O [mevalonic acid] | – | reduced | – |
| O=C(O)C[C@H](O)C[C@H](O)/C=C/c1c(C2CC2)nc2ccccc2c1-c1ccc(F)cc1 [pitavastatin calcium, (3R,5S,6E)-7-[2-cyclopropyl-4-(4-fluorophenyl)-3-quinolyl]-3,5-dihydroxy-6-heptenoic acid] | has activities to promote the expression of LKLF/KLF2 gene | – | expression of LKLF/KLF2 gene in HUVEC (expression level) with addition of GGPP (LKLF/KLF2 gene [2]; pitavastatin calcium 1.1 μmol/L plus geranylgeranyl pyrophosphate (GGPP), 8 hours): 355; expression of LKLF/KLF2 gene in HUVEC (expression level) (LKLF/KLF2 gene [2]; pitavastatin calcium 1.1 μmol/L, 8 hours after addition): 761; increase of expression of LKLF/KLF2 gene in comparison with the group added with no drug (LKLF/KLF2 gene [1]; HUVEC, 1 μmol/L alone, 8 hours after addition): 693% |
